Assays:
[1] = test system: nutsedge, yellow (yellow nutsedge, Cyperus esculentus); assay: Test C pre-/postemergence: nutsedge, yellow; format: in vivo
Outline: (§1)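 Preemergence on seeds in loam/sand, postemergence on 2–18 cm (1–4-leaf) plants in peat-based medium; compounds in non-phytotoxic solvent with surfactant. After 13–15 days in greenhouse, visual rating versus controls, 0 (no effect) to 100 (complete control).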

[2] = test system: ducksalad (Heteranthera limosa); assay: Test B flooded paddy: ducksalad; format: in vivo; conditions: Flood; 250 g ai/ha; applied to paddy water at 2-leaf stage; visually evaluated after 13 to 15 days
Outline: (§2)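 Paddy-water application: seedlings at 2-leaf stage, flood depth 3 cm maintained for the test duration. Evaluation after 13–15 days in the greenhouse by eye relative to controls; 0–100 scale.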

[3] = test system: crabgrass, large (large crabgrass, Digitaria sanguinalis); assay: Test A pre-/postemergence: crabgrass, large; format: in vivo; conditions: for Crabgrass, Large plant response rating: visual rating on 0 to 100 scale (0 no effect, 100 complete control), approximately ten days
Outline: (§3)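 Visual 0–100 injury ratings (0 no effect, 100 complete control) taken about ten days after treatment, relative to untreated controls. Preemergence treatment was a directed soil spray; postemergence plants were 2–10 cm tall at one- to two-leaf stage. Soil: loam/sand blend.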

[4] = test system: morningglory (Ipomoea spp.); assay: Test A pre-/postemergence: morningglory; format: in vivo; conditions: for Morningglory plant response rating: visual rating on 0 to 100 scale (0 no effect, 100 complete control), approximately ten days
Outline: as §3

[5] = test system: sedge, umbrella (small-flower umbrella sedge Cyperus difformis); assay: Test B flooded paddy: sedge, umbrella; format: in vivo; conditions: Flood; 250 g ai/ha; applied to paddy water at 2-leaf stage; visually evaluated after 13 to 15 days
Outline: as §2

[6] = test system: velvetleaf (Abutilon theophrasti); assay: Test C pre-/postemergence: velvetleaf; format: in vivo
Outline: as §1

soybean (Glycine max) = assay: Test C pre-/postemergence: soybean; format: in vivo
Outline: as §1

Barnyardgrass = assay: Test C preemergence: barnyardgrass; format: in vivo, Echinochloa crus-galli
Source text: Seeds of plant species selected from blackgrass (Alopecurus myosuroides), bromegrass, downy (downy bromegrass, Bromus tectorum), foxtail, green (green foxtail, Setaria viridis), ryegrass, Italian (Italian ryegrass, Lolium multiflorum), winter wheat (Triticum aestivum), wild oat (Avena fatua), galium (catchweed bedstraw, Galium aparine), bermudagrass (Cynodon dactylon), surinam grass (Brachiaria decumbens), cocklebur (common cocklebur, Xanthium strumarium), corn (Zea mays), large crabgrass (Digitaria sanguinalis), woolly cupgrass (Eriochloa villosa), foxtail, giant (giant foxtail, Setaria faberii), goosegrass (Eleusine indica), johnsongrass (Sorghum halepense), kochia (Kochia scoparia), lambsquarters (Chenopodium album), morningglory (Ipomoea coccinea), nightshade (eastern black nightshade, Solanum ptycanthum), nutsedge, yellow (yellow nutsedge, Cyperus esculentus), pigweed (Amaranthus retroflexus), ragweed (common ragweed, Ambrosia elation), soybean (Glycine max), common (oilseed) sunflower (Helianthus annuus), Russian thistle (Salsola kali) and velvetleaf (Abutilon theophrasti) were planted into a blend of loam soil and sand and treated preemergence with test chemicals formulated in a non-phytotoxic solvent mixture which included a surfactant.
Treated plants and controls were maintained in a greenhouse for 13 to 15 days, after which time all species were compared to controls and visually evaluated. Plant response ratings, summarized in Table C, are based on a scale of 0 to 100 where 0 is no effect and 100 is complete control. A dash (-) response means no test result.

kochia (Kochia scoparia) = assay: Test C pre-/postemergence: kochia; format: in vivo; conditions: Postemergence
Outline: as §1

[7] = test system: ragweed (common ragweed, Ambrosia elation); assay: Test C pre-/postemergence: ragweed; format: in vivo
Outline: as §1

[8] = test system: foxtail, giant (giant foxtail, Setaria faberii); assay: Test A pre-/postemergence: foxtail, giant; format: in vivo; conditions: for Foxtail, Giant plant response rating: visual rating on 0 to 100 scale (0 no effect, 100 complete control), approximately ten days
Outline: as §3

[9] = Postemergence, 31 g ai/ha, scale 0 to 100 (0 no effect, 100 complete control)
[10] = Postemergence, 62 g ai/ha, scale 0 to 100 (0 no effect, 100 complete control)
[11] = Postemergence, 125 g ai/ha, scale 0 to 100, 0 no effect, 100 complete control
[12] = Postemergence, 250 g ai/ha, scale 0 to 100
[13] = Preemergence, 31 g ai/ha, scale of 0 to 100, 0 is no effect, 100 is complete control
[14] = Postemergence, 125 g ai/ha, 0 to 100 scale, 0 is no effect, 100 is complete control
[15] = Preemergence, 125 g ai/ha, 0 to 100 scale where 0 is no effect and 100 is complete control
[16] = Preemergence, 500 g ai/ha, 0 to 100 scale (0 no effect, 100 complete control)
[17] = Preemergence, 62 g ai/ha, scale of 0 to 100, 0 is no effect, 100 is complete control
[18] = Preemergence, 125 g ai/ha, scale 0 to 100, 0 no effect, 100 complete control
[19] = Preemergence, 250 g ai/ha, scale 0 to 100, 0 no effect, 100 complete control
[20] = 31 g ai/ha, scale of 0 to 100, 0 is no effect, 100 is complete control
[21] = 62 g ai/ha, scale of 0 to 100, 0 is no effect, 100 is complete control
[22] = 125 g ai/ha, scale 0 to 100, 0 no effect, 100 complete control
[23] = 31 g ai/ha, scale 0 to 100 (0 no effect, 100 complete control)
[24] = 62 g ai/ha, scale 0 to 100 (0 no effect, 100 complete control)

CCc1nn(-c2ccc(C(F)(F)F)cc2)nc1Cc1ccnc(C(F)(F)F)c1 [Compound 155]
Plant response rating, Nutsedge, Yellow [1, 9]: 5
Plant response rating, Nutsedge, Yellow [1, 10]: 10
Plant response rating, Nutsedge, Yellow [1, 11]: 10
Plant response rating, Nutsedge, Yellow [1, 12]: 20
Plant response rating, Nutsedge, Yellow [1, 13]: 0
Plant response rating, Ducksalad (0 to 100 scale, 0 is no effect, 100 is complete control) [2]: 80
Plant response rating, Crabgrass, Large [3, 14]: 100
Crabgrass, Large plant response rating ([3]; Postemergence, 500 g ai/ha): 100
Plant response rating, Crabgrass, Large [3, 15]: 100
Plant response rating, Crabgrass, Large [3, 16]: 100
Plant response rating, Morningglory [4, 14]: 90
Morningglory plant response rating ([4]; Postemergence, 500 g ai/ha): 100
Plant response rating, Morningglory [4, 15]: 80
Plant response rating, Morningglory [4, 16]: 90
Plant response rating, Sedge, Umbrella (0 to 100 scale, 0 is no effect, 100 is complete control) [5]: 80
Plant response rating, Velvetleaf [6, 9]: 50
Plant response rating, Velvetleaf [6, 10]: 60
Plant response rating, Velvetleaf [6, 11]: 75
Plant response rating, Velvetleaf [6, 12]: 80
Plant response rating, Velvetleaf [6, 13]: 30
Plant response rating, Velvetleaf [6, 17]: 80
Plant response rating, Velvetleaf [6, 18]: 85
Plant response rating, Velvetleaf [6, 19]: 100
Plant response rating, Soybean (soybean (Glycine max); [9]): 50
Plant response rating, Soybean (soybean (Glycine max); [10]): 75
Plant response rating, Soybean (soybean (Glycine max); [11]): 80
Plant response rating, Soybean (soybean (Glycine max); [12]): 80
Plant response rating, Soybean (soybean (Glycine max); [13]): 0
Plant response rating, Soybean (soybean (Glycine max); [17]): 35
Plant response rating, Soybean (soybean (Glycine max); [18]): 35
Plant response rating, Soybean (soybean (Glycine max); [19]): 40
Plant response rating, Barnyardgrass (Barnyardgrass; [20]): 40
Plant response rating, Barnyardgrass (Barnyardgrass; [21]): 90
Plant response rating, Barnyardgrass (Barnyardgrass; [22]): 98
Plant response rating, Kochia (kochia (Kochia scoparia); [23]): 90
Plant response rating, Kochia (kochia (Kochia scoparia); [24]): 90
Plant response rating, Kochia (kochia (Kochia scoparia); [22]): 95
Plant response rating, Kochia (kochia (Kochia scoparia); 250 g ai/ha, scale 0 to 100): 95
Plant response rating, Ragweed [7, 9]: 80
Plant response rating, Ragweed [7, 11]: 85
Plant response rating, Ragweed [7, 12]: 85
Plant response rating, Ragweed [7, 13]: 20
Plant response rating, Ragweed [7, 17]: 40
Plant response rating, Ragweed [7, 18]: 85
Plant response rating, Ragweed [7, 19]: 95
Plant response rating, Foxtail, Giant [8, 14]: 90
Foxtail, Giant plant response rating ([8]; Postemergence, 500 g ai/ha): 100
Plant response rating, Foxtail, Giant [8, 15]: 100
Plant response rating, Foxtail, Giant [8, 16]: 100

Cc1nn(-c2ccc(F)c(C(F)(F)F)c2)nc1Cc1ccnc(C(F)(F)F)c1 [Compound 156]
Plant response rating, Nutsedge, Yellow [1, 9]: 5
Plant response rating, Nutsedge, Yellow [1, 10]: 10
Plant response rating, Nutsedge, Yellow [1, 11]: 10
Plant response rating, Nutsedge, Yellow [1, 12]: 10
Plant response rating, Nutsedge, Yellow [1, 13]: 0
Plant response rating, Nutsedge, Yellow [1, 17]: 0
Plant response rating, Nutsedge, Yellow [1, 18]: 0
Plant response rating, Nutsedge, Yellow [1, 19]: 0
Plant response rating, Ducksalad (0 to 100 scale, 0 is no effect, 100 is complete control) [2]: 90
Plant response rating, Crabgrass, Large [3, 14]: 100
Crabgrass, Large plant response rating ([3]; Postemergence, 500 g ai/ha): 100
Plant response rating, Crabgrass, Large [3, 15]: 100
Plant response rating, Crabgrass, Large [3, 16]: 100
Plant response rating, Morningglory [4, 14]: 90
Morningglory plant response rating ([4]; Postemergence, 500 g ai/ha): 90
Plant response rating, Morningglory [4, 15]: 80
Plant response rating, Morningglory [4, 16]: 90
Plant response rating, Sedge, Umbrella (0 to 100 scale, 0 is no effect, 100 is complete control) [5]: 85
Plant response rating, Velvetleaf [6, 9]: 45
Plant response rating, Velvetleaf [6, 10]: 50
Plant response rating, Velvetleaf [6, 11]: 60
Plant response rating, Velvetleaf [6, 12]: 80
Plant response rating, Velvetleaf [6, 13]: 5
Plant response rating, Velvetleaf [6, 17]: 40
Plant response rating, Velvetleaf [6, 18]: 40
Plant response rating, Velvetleaf [6, 19]: 100
Plant response rating, Soybean (soybean (Glycine max); [9]): 55
Plant response rating, Soybean (soybean (Glycine max); [10]): 80
Plant response rating, Soybean (soybean (Glycine max); [11]): 95
Plant response rating, Soybean (soybean (Glycine max); [12]): 95
Plant response rating, Soybean (soybean (Glycine max); [13]): 5
Plant response rating, Soybean (soybean (Glycine max); [17]): 10
Plant response rating, Soybean (soybean (Glycine max); [18]): 25
Plant response rating, Soybean (soybean (Glycine max); [19]): 25
Plant response rating, Barnyardgrass (Barnyardgrass; [20]): 85
Plant response rating, Barnyardgrass (Barnyardgrass; [21]): 90
Plant response rating, Barnyardgrass (Barnyardgrass; [22]): 90
Plant response rating, Kochia (kochia (Kochia scoparia); [23]): 90
Plant response rating, Kochia (kochia (Kochia scoparia); [24]): 90
Plant response rating, Kochia (kochia (Kochia scoparia); [22]): 90
Plant response rating, Kochia (kochia (Kochia scoparia); 250 g ai/ha, scale 0 to 100): 95
Plant response rating, Ragweed [7, 9]: 75
Plant response rating, Ragweed [7, 10]: 75
Plant response rating, Ragweed [7, 11]: 75
Plant response rating, Ragweed [7, 12]: 80
Plant response rating, Ragweed [7, 13]: 5
Plant response rating, Ragweed [7, 17]: 10
Plant response rating, Ragweed [7, 18]: 30
Plant response rating, Ragweed [7, 19]: 60
Plant response rating, Foxtail, Giant [8, 14]: 90
Foxtail, Giant plant response rating ([8]; Postemergence, 500 g ai/ha): 100
Plant response rating, Foxtail, Giant [8, 15]: 100
Plant response rating, Foxtail, Giant [8, 16]: 100

Source: US9302999B2, “Substituted triazoles as herbicides” (E. I. DU PONT DE NEMOURS AND COMPANY, priority 2012, dated 2016)
